This note sets out measurements from patent publication US11759480B2, “Compositions and methods for CAR T cell therapy” (ENDOCYTE, INC., priority 2017, dated 2023).

The subject of series [1] is MDA-MB-231 solid tumor xenografts. In kind it is in vivo. Here is the method:
MDA-MB-231 cells were subcutaneously injected into the shoulders of NSG mice (Jackson Laboratory) to establish solid tumor xenografts. When tumor volume reached around 50-100 mm^3, anti-FITC CAR T cells (15×10^6 cells) were intravenously introduced into tumor-bearing mice. Twenty NSG mice were divided into four study groups (5 animals in each group). The first group was treated with anti-FITC CAR T cells with phosphate-buffered saline (PBS) as a negative control. The second, third, and fourth groups were treated with anti-FITC CAR T cells with FITC-Folate (500 nmole/kg) every other day. Once a significant toxicity (e.g. serious loss of body weight) was detected, these groups were treated with either: continued FITC-Folate administration (second group); discontinuation of FITC-Folate administration until the mice recovered (third group); or a mixture of 100-fold excess of EC0923 (i.e. free folate) and FITC-Folate until the mice recovered (fourth group). The body weight was measured regularly to monitor toxicity. In addition, the blood concentration of interferon (IFN)-gamma for each treatment group was measured to monitor the degree of anti-FITC CAR T activation. Finally, tumor volume was measured to identify anti-tumor efficacy in each treatment group.

Series [2] has the same test system. In words: Control of CAR T cell activation in vivo: break, FA competitor or both (Example 19). Here is the method:
Five study groups were designed to test whether anti-FITC CAR T cell activation can be controlled via temporal termination of FITC-ligands, by administering a competitor small molecule, or a combination approach of both discontinuing of FITC-ligands and/or administering an FA competitor. The first group was treated by administering anti-FITC CAR T cell with phosphate-buffered saline (PBS) as a negative control. Every other day over the course of the study, the second, third, fourth and fifth groups were treated with anti-FITC CAR T cell mixed with FITC-Folate (500 nmole/kg). […] Mouse bodyweight was measured regularly to test for toxicity.

For series [3], the system named is severe cytokine release syndrome in mice bearing tumors. The series can be described thus: Rescue ability of EC0923 during CAR T cell treatment (Example 18). The class given is in vivo. Here is the method: CAR T cells were introduced into mice bearing tumors and EC17 was also introduced (i.v.) three times per week. When severe cytokine release syndrome was observed, one dose of EC0923 at 10 μmoles/kg was introduced to rescue mice. Mice were monitored for 4 more days, and some were euthanized to evaluate organs. Mice with one dose of EC0923 started to move and look for food after 4 hours, and their spleens and livers were red. Control mice without EC0923 didn't move after 6 hours, and their spleens and livers were pale. Mice with EC0923 treatment were active again in 24 hours and expected to survive, and were put back to a normal EC17 dosing schedule. Control mice without EC0923 started to move a little in 24 hours, but had to be euthanized to prevent animal suffering. Mice with EC0923 looked normal in 4 days. One of the mice was euthanized and found to have normal colored spleen and liver. […] Other remaining mice with EC0923 were given routine EC17 dosing three times per week, and their tumors disappeared in 4 weeks.

The test system of series [4] is MDA-MB-231 tumors. In words: Rescue ability of competitors during CAR T cell treatment (Example 23). In kind it is in vivo, mice. The note with it: for time until mice looked normal / time until mice started to move and look for food / time until mice were active again: one i.v. dose 10 μmoles/kg at sCRS. Here is the method:
When severe cytokine release syndrome was observed, one dose of EC0923 (folate) or untethered fluorescein (both at 10 μmoles/kg) was introduced intravenously to rescue mice (FIG. 16). Mice with one dose of EC0923 or fluorescein started to move and look for food after 4 hours, were active again in 24 hours, and looked normal in 4 days. EC17 administration was then continued. Control mice without EC0923 or fluorescein didn't move after 4 hours, and had to be euthanized because of the sickness. […] All mice tested for cytokine production were injected with 8 million CAR-T cells.

For series [5], the system named is MDA-MB-231 tumors. The series can be described thus: CAR-T number in blood after rescue with EC0923 or fluoresceinamine (Example 31). As to conditions: for earliest time of increased CAR-T count in blood: 10 umol/kg i.v.; for CAR-T number in blood: 10 umol/kg i.v. at sCRS. The class given is in vivo, NSG mice. The protocol:
EC17/CAR-T therapy strategy is controllable through bridge displacement by either free folate or free fluorescein. […] Mice from three groups were then euthanized at 8, 12, 24 and 48 hours post injection of EC0923 or fluoresceinamine, and their blood samples were analyzed for CAR-T cell number and cytokine levels. CAR-T cells in blood were stained with anti-human CD45 antibody labeled with APCeF780 (Biolegend) and counted by FACS. CountBright™ Absolute Counting Beads (ThermoFisher Scientific) were mixed into the samples and used as a reference for cell counting.

Series [6] relates to MDA-MB-231 tumors. In words: Comparison of three rescue reagents (Example 32). As to conditions: for order of sCRS severity (from worst to least): 10 hours after rescue, Leucovorin 10, folic acid 10, sodium fluorescein 260 umol/kg; for tumor outcome of rescued mice: single rescue dose, EC17 continued.
Protocol: To evaluate whether mice with FITC-CAR-T therapy related sCRS can be rescued by using competitors which may displace EC17 from either FITC-CAR-T or FR+ tumor cells, 49 NSG mice bearing MDA-MB-231 tumors (150-250 mm3) were administered with excess FITC-CAR-T cells (8 million), 36 of them were then dosed with 500 nmol/kg EC17 48 hours post CAR-T administration, 6 of them were not dosed with EC17 and were used as “No EC17” control, and 7 of them were dosed with 260 umol/kg sodium fluorescein (no EC17 but Fluorescein) to test its toxicity. […] Each group was i.v. injected with 10 umol/kg of Leucovorin, or 10 umol/kg folic acid, or 260 umol/kg sodium fluorescein, or nothing as an un-rescued control. […] Mouse body weight changes were also monitored as the indication of toxicity. […] To evaluate whether the rescue injections affect the anti-tumor activity of FITC-CAR-T cells, these mice were dosed with 500 nmol/kg EC17 twice per week (days 9, 11, 15, 18, 22, 25, etc.) and the tumor size was monitored.
Another series has as its system MDA-MB-231 cells. The series can be described thus: Control of CRS with bridge molecules in vivo (Example 43). Set-up: species or system NSG mice. The protocol: Mice were maintained on folic acid-deficient diet (TD.95247, Envigo) in order to reduce the level of folic acid in mice to a physiological levels found in humans. Tumors were measured every other day with calipers, and tumor volume was calculated according to equation: Tumor volume=½(L×W^2) where L is the longest axis of the tumor and W is the axis perpendicular to L. Mouse blood was also collected to measure cytokine levels (e.g. IL-2, IL-6, IFNγ, and TNFα) using LEGENDplex bead-based immunoassay (Biolegend, CA) and systemic toxicity was monitored by measuring body weight loss. All animal care and use followed by National Institutes of Health (NIH) guidelines and all experimental protocols were approved by the Purdue Animal Care and Use Committee.

The subject of a further series is MDA-MB-231. The series can be described thus: Effect of Folate-FITC on CAR-T cell number and serum cytokines (Example 21). In kind it is in vivo, NSG mice. The note with it: 500 nmole/kg, 10^7 CAR T cells, Day 6. Here is the method:
The triple negative human breast cancer cell line (i.e. MDA-MB-231) was subcutaneously implanted into the shoulders of immunodeficient (e.g. NSG) mice. When tumor volume reached around 50-100 mm^3, anti-FITC CAR T cells (10^7 cells) were intravenously introduced with either FITC-folate (500 nmole/kg) or PBS. To monitor CAR T cell proliferation and pro-inflammatory cytokine production, mice blood was collected at Day 6. CAR T cell proliferation was evaluated by staining a whole blood sample with anti-human CD3 antibody (Biolegned) and detecting GFP expression on the CD3 positive T cell population. Pro-inflammatory cytokine production was measured by a bead-based immunoassay (Legendplex kit from biolegend).

The mark [7] stands for this setting: within 3 hours, 6 μmole/kg free fluorescein.
Where [8] appears, read: 100-fold excess on days 4 and 6.

For the compound `Nc1nc(=O)c2nc(CNc3ccc(C(=O)N[C@@H](CCC(=O)O)C(=O)O)cc3)cnc2[nH]1` [EC0923], the IFN-gamma blood concentration result in series [1] (competitor group) is listed as “decreased”. In series [1] (competitor group: 100-fold excess of free folate mixed with FITC-Folate at day 4 and day 6), the “survival of mice at the first week of treatment” value is “all of the mice in both the break and competitor groups survived”. Moreover, the “control of CAR T cell mediated toxicity” value in series [2] (100-fold excess with FITC-Folate (FITC-Folate+FA Competitor)) is reported as “able to control the degree of CAR T cell activation to alleviate CAR T cell mediated toxicity”; in series [2] (termination of FITC-Folate plus excess free folic acid (Break+FA Competitor)), “better efficacy in decreasing CAR T cell mediated toxicity compared to each approach alone”.
As for `Nc1nc2ncc(CNc3ccc(C(=O)N[C@@H](CCCN[C@H](CC(=O)O)C(=O)N[C@H](CC(=O)O)C(=O)O)C(=O)O)cc3)nc2c(=O)[nH]1` [EC0923], the complete response in series [1] (competitor group (100-fold excess EC0923 + FITC-Folate)) is 75%. Further, in series [3] (one dose 10 μmoles/kg at sCRS), the “time until mice looked normal” value is 4 days; the “time until mice started to move and look for food” value (“time until mice started” below) was determined as 4 h; the “time until mice were active again” value was 24 h. Besides, the “time until tumors disappeared” value in series [3] (rescued mice, routine EC17 dosing three times per week resumed) was found to be 4 weeks. In the series on MDA-MB-231 tumors [4], the “time until mice looked normal” value was found to be 4 days; the “time until mice started” value came out at 4 h; the “time until mice were active again” value was determined as 24 h. In addition, in the series with MDA-MB-231 tumors [4] (rescue treatment, EC17 continued), the “tumor outcome four weeks later” value is reported as “tumors were eliminated”. For the same compound, in the series on MDA-MB-231 tumors [5], the “earliest time of increased CAR-T count in blood” value was 6 h and the “CAR-T number in blood” value is given as “increase of CAR-T number in blood circulation”.
As for `Nc1nc2c(c(=O)[nH]1)N(C=O)C(CNc1ccc(C(=O)N[C@@H](CCC(=O)O)C(=O)O)cc1)CN2` (stereo partly shown) [Leucovorin], in the series on MDA-MB-231 tumors [6], the “order of sCRS severity (from worst to least)” value is recorded as “no rescue group>leucovorin rescue group>folic acid rescue group>sodium fluorescein rescue group>no EC17 group” and the “tumor outcome of rescued mice” value is reported as “complete response”.
`O=C1OC2(c3ccc(O)cc3Oc3cc(O)ccc32)c2ccccc21` [fluorescein, reference compound]: in the series on MDA-MB-231 tumors [4], the “time until mice looked normal” value turned out to be 4 days; the “time until mice started” value turned out to be 4 h; the “time until mice were active again” value worked out at 24 h. Further, the “time to decrement of plasma IFNγ” value with MDA-MB-231 cells (post fluorescein injection) came to 6 h. Also, in the series with MDA-MB-231 cells (setting [7]), the “decrease of plasma IL-2” value is given as over 50%, the “decrease of plasma IL-6” value is over 50% and the “decrease of plasma TNF-α” value is given as over 50%.
As to `Nc1ccc2c(c1)C(=O)OC21c2ccc(O)cc2Oc2cc(O)ccc21` [fluoresceinamine], the “CAR-T displacement compared with EC0923” value in the series on MDA-MB-231 tumors [5] (10 umol/kg) was “more CAR-T displacement than folate”. Further, in the series on MDA-MB-231 tumors [5], the “earliest time of increased CAR-T count in blood” value was determined as 6 h and the “CAR-T number in blood” value is recorded as “increase of CAR-T number in blood circulation”.
As to `Nc1nc2ncc(CNc3ccc(C(=O)N[C@@H](CCC(=O)O)C(=O)O)cc3)nc2c(=O)[nH]1` [folic acid, reference compound], in the series on MDA-MB-231 cells (setting [8]), the IFNγ level result is listed as “reduced the level of IFNγ”, the body weight result is given as “rapidly prevented the continuous weight loss” and the “therapeutic potency of CAR T cell therapy” value was “enhanced the therapeutic potency”. In the series on MDA-MB-231 tumors [6], the “order of sCRS severity (from worst to least)” value was “no rescue group>leucovorin rescue group>folic acid rescue group>sodium fluorescein rescue group>no EC17 group” and the “tumor outcome of rescued mice” value is “complete response”.
In the case of FITC-Folate [EC17], in the series on MDA-MB-231, the “anti-FITC CAR T cell proliferation in blood” value is on record as “proliferated significantly” and the “pro-inflammatory cytokines (IL-2, TNF-α, IFN-γ)” value is given as “significantly produced”.
